Laboratory results reported in ChEMBL document CHEMBL3301458, “MMV Malaria Box hERG screening”.
Activity calls are given as the source filed them. How the calls were made is not given here.

Key:
[1] = target: T1, hERG (Kv11.1, KCNH2) (Homo sapiens, UniProt Q12809); test: in vitro
Description: MMV: Malaria Box compounds were tested for inhibition of the human ether a go-go related gene (hERG), Kv11.1 channel, using IonWorks 384-well patch clamp electrophysiology at 1.1uM (3 independent assay plates up to 12 cells per concentration).

[2] = target: T1, hERG (Kv11.1, KCNH2); test: in vitro; remark: listed apart in the source
Description: MMV: Malaria Box compounds were tested for inhibition of the human ether a go-go related gene (hERG), Kv11.1 channel, using IonWorks 384-well patch clamp electrophysiology at 11.1uM (3 independent assay plates up to 12 cells per concentration).

T1 sequence (Q12809 whole entry): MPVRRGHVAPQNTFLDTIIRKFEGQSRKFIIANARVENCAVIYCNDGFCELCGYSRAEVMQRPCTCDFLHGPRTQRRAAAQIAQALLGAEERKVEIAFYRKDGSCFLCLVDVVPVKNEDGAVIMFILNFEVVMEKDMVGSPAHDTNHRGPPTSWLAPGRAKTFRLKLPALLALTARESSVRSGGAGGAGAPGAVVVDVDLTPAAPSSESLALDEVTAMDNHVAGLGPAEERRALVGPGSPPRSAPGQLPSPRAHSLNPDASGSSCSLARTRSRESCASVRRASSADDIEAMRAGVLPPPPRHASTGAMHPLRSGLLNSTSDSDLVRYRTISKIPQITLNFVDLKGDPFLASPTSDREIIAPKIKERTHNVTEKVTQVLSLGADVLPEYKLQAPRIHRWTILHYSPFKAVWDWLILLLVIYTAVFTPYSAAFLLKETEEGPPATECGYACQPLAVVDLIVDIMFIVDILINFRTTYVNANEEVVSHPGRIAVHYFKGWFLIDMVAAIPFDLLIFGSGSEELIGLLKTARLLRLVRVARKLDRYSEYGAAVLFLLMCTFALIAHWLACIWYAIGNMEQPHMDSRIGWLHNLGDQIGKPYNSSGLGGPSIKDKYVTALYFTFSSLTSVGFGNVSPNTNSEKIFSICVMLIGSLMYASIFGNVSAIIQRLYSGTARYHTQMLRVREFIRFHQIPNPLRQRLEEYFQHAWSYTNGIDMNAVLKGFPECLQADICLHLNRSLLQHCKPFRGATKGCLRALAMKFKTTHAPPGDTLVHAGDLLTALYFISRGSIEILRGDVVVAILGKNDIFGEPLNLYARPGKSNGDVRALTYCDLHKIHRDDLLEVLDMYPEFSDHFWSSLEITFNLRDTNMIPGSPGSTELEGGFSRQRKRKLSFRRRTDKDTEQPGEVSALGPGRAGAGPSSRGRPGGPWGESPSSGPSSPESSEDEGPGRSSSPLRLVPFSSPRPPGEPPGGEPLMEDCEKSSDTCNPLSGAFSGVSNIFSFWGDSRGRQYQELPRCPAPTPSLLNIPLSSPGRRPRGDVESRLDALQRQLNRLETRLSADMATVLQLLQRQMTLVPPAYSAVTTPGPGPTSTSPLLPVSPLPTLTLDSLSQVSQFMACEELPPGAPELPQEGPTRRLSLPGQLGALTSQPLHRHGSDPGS

Structure (SMILES) | inhibition at 1.1 µM [1] [%] | inhibition at 11.1 µM [2]
c1ccc(/C2=N/c3ccccc3/N=C(/c3ccccc3)c3ccccc32)cc1 | 7 | 3% (inactive)
CCOC(=O)c1cnc2ccc(CC)cc2c1O | 1 | 12% (inactive)
CN(C)CCNc1cc(-c2ccccc2)nc2ccccc12 | 20 | 66% (active)
Cc1cc(NCCN2CCCCC2)c2ccc3ccccc3c2n1 | 32 | 95% (active)
O=C(O)C1Cc2c([nH]c3ccccc23)C(c2ccc(Cl)cc2Cl)N1 (stereo not drawn) | -5 | 34%
COc1ccc2nc(C)cc(Nc3ccc(Cl)cc3)c2c1 | 67 | 111%
CCc1c(C)c(=N)c2ccccc2n1C | 6 | 11% (inactive)
COc1cc2cc(C(=O)Nc3ccccc3)c(N)nc2cc1OC | 10 | 69% (active)
CCOc1ccc(CN2CCN(CC(O)COc3ccc(OCC(O)CN4CCN(Cc5ccc(OCC)cc5)CC4)cc3)CC2)cc1 (stereo not drawn) | 70 | 83%
CN(C)c1ccc(C=Cc2nc(=O)c3ccccc3o2)cc1 | 2 | 0% (inactive)
Brc1ccc(Nc2nc3ccccc3nc2Nc2ccc(Br)cc2)cc1 | 2 | 2% (inactive)
CCCN(CCC)CC(O)COc1ccccc1C(=O)Nc1ccccc1 (stereo not drawn) | 57 | 98%
Cc1ccc(CSCc2ccc(C(=O)NC3CC3)o2)cc1 | 2 | 26%
Cc1cc(Nc2ccc(OCc3ccccc3)cc2)nc2cc(O)ccc12 | -2 | 108% (active)
CN1CCN(c2c3c(c(C#N)c4nc5ccccc5n24)CCC3)CC1 | 7 | 45%
CCN(CC)CCNc1ccnc2cc3ccccc3cc12 | 9 | 6% (inactive)
CCOc1ccc2nc(C)cc(Nc3ccc(N(C)C)cc3)c2c1 | 4 | 3% (inactive)
COc1ccc(Nc2cc(C)nc(NCc3ccccc3)n2)cc1 | > 5 | 67% (active)
COc1cc(-c2nc(-c3ccc(Sc4ccccc4)cc3)c(-c3ccccc3)[nH]2)cc(OC)c1O | 15 | 13% (inactive)
Cc1cc(Nc2cccc(F)c2)nc(NCc2ccccc2)n1 | 11 | 73% (active)
COc1ccc2c(c1)OC(O)(C(F)(F)C(F)(F)F)CC2=O (stereo not drawn) | 4 | 25%
Cc1ccc(-c2cc3nc4c(c(O)n3n2)CCCC4)cc1 | -4 | 11% (inactive)
CC(=O)NCCc1nc2ccccc2n1Cc1ccc(C(C)C)cc1 | 6 | 26%
O=C(Nc1ccc(-c2nc3cc(NC(=O)c4ccc(Cl)cc4)ccc3[nH]2)cc1)c1ccc(Cl)cc1 | -9 | 28%
COc1nc(Nc2ccc(C(C)C)cc2)nc(OC)n1 | -2 | 17% (inactive)

Structure (SMILES) | inhibition at 1.1 µM [1] [%] | inhibition at 11.1 µM [2]
Cc1ccccc1OCCSc1nc2ccc(NC(=O)c3cccs3)cc2s1 | 12 | 24% (inactive)
c1ccc2cc3c(Nc4ccc(N5CCOCC5)cc4)ccnc3cc2c1 | 38 | 87% (active)
COc1ccc(C(=O)C(CCC(CNC(C)(C)C)C(=O)c2ccc(OC)cc2)CNC(C)(C)C)cc1 (stereo not drawn) | 9 | 33%
CC(C)CCNCC(O)Cn1c2ccccc2c2ccccc21 (stereo not drawn) | 2 | 61% (active)
Cc1c(C)n(Cc2ccc(F)cc2)c2ccc(C(=O)NCc3ccco3)cc12 | -2 | 5% (inactive)
CCOC(=O)c1cnc2ccc(Cl)cc2c1NCCCN(C)C | 21 | 85% (active)
Cc1cc(C)c2c(c1)OCN(Cc1ccccc1Cl)C2 | 30 | 88% (active)
COc1cc(OC)c(N(C)C(=O)c2cc3c(s2)-c2ccccc2S(=O)(=O)C3)cc1Cl | 3 | 41%
CCOc1ccccc1NC(=O)CN1CCN(C(=O)c2ccco2)CC1 | 13 | 35%
c1ccc2c(NCCc3c[nH]c4ccccc34)c3ccccc3nc2c1 | 64 | 109%
O=C(Nc1ccc(C23CC4CC(CC(c5ccccc5)(C4)C2)C3)cc1)c1cccs1 | 4 | 3% (inactive)
O=C1c2ccccc2C2=Nc3ccccc3SC(c3cccc(F)c3)C12 (stereo not drawn) | -4 | 4% (inactive)
CN1C=C(c2ccc3ccccc3n2)C(c2c[nH]c3ccccc23)c2ccccc21 (stereo not drawn) | 8 | 89% (active)
Cc1ccccc1OCCSc1nc2ccc(NC(=O)c3ccccc3)cc2s1 | -9 | 2% (inactive)
CCOC(=O)c1cnc2c(C)cccc2c1Nc1ccc(C(C)=O)cc1 | 6 | 39%
Cc1cc(NC(=O)C2c3ccccc3C(=O)N(CC(C)C)C2c2cccs2)no1 (stereo not drawn) | 4 | 11% (inactive)
Cc1ccc(Cn2c(N3CCC(C(=O)NCc4cccs4)CC3)nc3ccccc32)cc1 | 105 | 103%
O=c1nc(C=Cc2ccc(Cl)cc2)oc2ccccc12 | -5 | 10% (inactive)
O=C(NCc1ccco1)C1CCN(S(=O)(=O)c2ccc(Br)cc2)CC1 | 21 | 34%
COc1ccc(-c2nc3cc(Cc4ccc5[nH]c(-c6ccc(OC)cc6)nc5c4)ccc3[nH]2)cc1 | -7 | -1% (inactive)
Cc1ccc2c(C)nc(Nc3nc(C)cc(-c4ccccc4)n3)nc2c1 | -1 | 4% (inactive)
CCOc1ccc(Nc2ccnc3cc(Cl)ccc23)cc1 | 5 | 26%
CCOC(=O)c1ccc2[nH]c(-c3ccccc3)cc(=O)c2c1 | -1 | 7% (inactive)
Clc1ccc2[nH]c3c(NCCCN4CCOCC4)ncnc3c2c1 | 29 | 89% (active)
COc1ccc(OC)c(C2C3=C(CC(C)(C)CC3=O)N(c3ccc(Cl)c(Cl)c3)C3=C2C(=O)CC(C)(C)C3)c1 | 21 | 27%

Structure (SMILES) | inhibition at 1.1 µM [1] [%] | inhibition at 11.1 µM [2]
Cc1cccc(N2C(=O)C3C(C2=O)C2(c4ccccc4)C(=O)C3(c3ccccc3)C(c3ccc4c(c3)OCO4)=C2c2ccc3c(c2)OCO3)c1 (stereo not drawn) | -14 | 2% (inactive)
Cc1cc(=O)oc2c1ccc1oc(C(=O)c3ccccc3)c(C)c12 | -6 | 6% (inactive)
COc1ccc(C(C)=O)cc1N1C(=O)C2C(C1=O)C1(c3ccccc3)C(=O)C2(c2ccccc2)C(c2ccc(C)cc2)=C1c1ccc(C)cc1 (stereo not drawn) | -5 | -1% (inactive)
COc1ccc(CCNC(=O)c2cc(S(=O)(=O)N3CC(C)CC(C)C3)ccc2Sc2ccc(F)cc2)cc1OC (stereo not drawn) | 10 | 5% (inactive)
Cc1ccc(F)cc1NC(=O)c1cc(Cl)ccc1Nc1ccccc1 | 5 | 12% (inactive)
CCOc1ccc2nc(C)cc(Nc3ccc(Br)cc3)c2c1 | 3 | 16% (inactive)
CCCCc1c(C)nc2c(OC)cccc2c1O | -9 | 4% (inactive)
CCCCCCOC(=O)C1=C(C)NC(=O)NC1c1ccccc1F (stereo not drawn) | -2 | 1% (inactive)
OC1=C2C(=Nc3ccccc3SC2c2ccc(Br)cc2)c2ccccc21 (stereo not drawn) | 3 | 10% (inactive)
Clc1ccc2c(N3CCCC3)ccnc2c1 | 38 | 83% (active)
COc1cc2c3cc1Oc1c(OC)c(OC)cc4c1C(Cc1ccc(O)c(c1)Oc1ccc(cc1)CC3N(C)CC2)N(C)CC4 (stereo not drawn) | 14 | 69% (active)
Cc1ccc(N2C3c4ccccc4N(S(=O)(=O)c4ccc(C)cc4)C2c2ccccc2N3S(=O)(=O)c2ccc(C)cc2)cc1 | 18 | 18% (inactive)
Cc1ccc(C)c(-c2csc(Nc3ccc(C)c(C)c3)n2)c1 | 57 | 100%
COc1cc(OC)cc(N2C(=O)N(Cc3ccc(C(C)(C)C)cc3)c3ccccc3S2(=O)=O)c1 | 10 | 16% (inactive)
CCOc1c(Br)cc(C2C(C(=O)OC)=CN(C)C=C2C(=O)OC)cc1OC | 3 | 21% (inactive)
CCOc1ccc(CCNC(=O)c2cccs2)cc1OCC | 9 | 13% (inactive)
Cc1cc(N2CCN(C3CCCC3)CC2)n2c(nc3ccccc32)c1C#N | -3 | 45%
CCCCOc1ccc(C(=O)Nc2cc(C)on2)cc1 | -2 | 2% (inactive)
COc1ccccc1N1C(=N)SC(=Cc2ccc(OCc3ccccc3F)cc2)C1=O | 18 | 24% (inactive)
CCc1ccc(Nc2cc(C)nc3nc(C)nn23)cc1 | -2 | 42%
CCOC(=O)C1=CN(C)C=C(C(=O)OCC)C1c1cc(Br)c(OCC)c(OC)c1 | 16 | 54% (active)
C=CCc1c(C)nc2ccccc2c1O | 11 | 11% (inactive)
CCCCc1c(CCC)c(=N)c2ccccc2n1C | 29 | 74% (active)
CCCCN(CCCC)S(=O)(=O)c1ccc(NC(=O)c2ccco2)cc1 | 13 | 30%
